Our source for the IC50 values is publication PMC11251990 (Frontiers in Pharmacology, 2024).

Structures are written as SMILES.

Type in all cases: biochemical
Assay [1] has as its target T1, dipeptidyl peptidase 1 (DPP1, cathepsin C) (Rattus norvegicus, UniProt P80067).
T1 construct: gene Ctsc; recombinant rat DPP1, proteolytically processed into mature form with cathepsin L
Nature of the assay: fluorogenic H-Gly-Arg-AMC cleavage assay with recombinant enzyme.

Assay [2] addresses T2, dipeptidyl peptidase 1 (DPP1, cathepsin C) (Canis lupus, UniProt O97578).
T2 construct: gene CTSC; native DPP1 in dog white blood cell lysate
The assay can be described thus: fluorogenic H-Gly-Arg-AMC cleavage assay in crude white blood cell lysate. Conditions: read-out: DPP1 / Dog.

Assay [3] has as its target T3, dipeptidyl peptidase 1 (DPP1, cathepsin C) (Mus musculus, UniProt P97821).
T3 construct: gene Ctsc; recombinant mouse DPP1
The assay can be described thus: fluorogenic H-Gly-Arg-AMC cleavage assay with recombinant enzyme.

T2 sequence (O97578 1-109): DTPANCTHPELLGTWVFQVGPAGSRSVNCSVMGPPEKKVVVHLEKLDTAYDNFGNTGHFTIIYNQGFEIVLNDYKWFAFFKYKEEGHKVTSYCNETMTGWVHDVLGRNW
T2 sequence (O97578 200-435): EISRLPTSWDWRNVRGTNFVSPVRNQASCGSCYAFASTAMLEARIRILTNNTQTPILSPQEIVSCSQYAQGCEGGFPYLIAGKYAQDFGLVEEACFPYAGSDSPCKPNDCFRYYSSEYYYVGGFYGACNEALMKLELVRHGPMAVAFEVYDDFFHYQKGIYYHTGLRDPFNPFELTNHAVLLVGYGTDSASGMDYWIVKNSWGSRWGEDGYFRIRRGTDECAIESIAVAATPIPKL
T1 sequence (P80067 25-134): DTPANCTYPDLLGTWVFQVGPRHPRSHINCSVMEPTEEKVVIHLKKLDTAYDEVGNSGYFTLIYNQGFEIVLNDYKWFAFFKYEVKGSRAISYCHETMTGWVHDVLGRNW
T1 sequence (P80067 230-393): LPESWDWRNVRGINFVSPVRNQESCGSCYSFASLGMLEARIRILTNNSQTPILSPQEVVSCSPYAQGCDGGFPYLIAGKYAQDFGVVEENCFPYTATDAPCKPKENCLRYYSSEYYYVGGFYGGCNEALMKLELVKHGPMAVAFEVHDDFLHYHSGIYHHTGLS
T1 sequence (P80067 394-462): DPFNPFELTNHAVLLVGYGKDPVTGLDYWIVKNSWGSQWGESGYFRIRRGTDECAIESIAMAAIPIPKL
T3 sequence (P97821 25-134): as the sequence (P80067 25-134) above, with H23S, P24S, H27D, P35A, I42V, V54L, Y59H, K86R, S88H, R89T counted along it
T3 sequence (P97821 231-462): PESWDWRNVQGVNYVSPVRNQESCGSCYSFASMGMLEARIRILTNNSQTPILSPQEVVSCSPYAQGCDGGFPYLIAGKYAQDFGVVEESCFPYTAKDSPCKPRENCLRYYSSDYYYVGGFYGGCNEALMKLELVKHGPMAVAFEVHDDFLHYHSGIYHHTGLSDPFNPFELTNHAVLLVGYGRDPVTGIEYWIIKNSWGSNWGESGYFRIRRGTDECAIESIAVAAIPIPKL

`Cn1c(=O)oc2ccc(-c3ccc(C[C@@H](C#N)NC(=O)[C@@H]4CNCCCO4)cc3)cc21` [brensocatib]: the IC50 in assay [1] is 51.1 nM; in assay [2] it was 38.1 nM; in assay [3], 24.1 nM.
